Literature values, collected in PMC8307317, “Point-Substitution of Phenylalanine Residues of 26RFa Neuropeptide: A Structure-Activity Relationship Study” (Molecules, 2021).

Target: T1, human QRFPR (hQRFPR) (Homo sapiens, UniProt Q96P65)
T1 construct: expressed in transfected cells; host or cells: CHO cells, stably transfected with hQRFPR (G418 selection) and Gα16 (hygromycin B selection)
T1 sequence (Q96P65 1-431): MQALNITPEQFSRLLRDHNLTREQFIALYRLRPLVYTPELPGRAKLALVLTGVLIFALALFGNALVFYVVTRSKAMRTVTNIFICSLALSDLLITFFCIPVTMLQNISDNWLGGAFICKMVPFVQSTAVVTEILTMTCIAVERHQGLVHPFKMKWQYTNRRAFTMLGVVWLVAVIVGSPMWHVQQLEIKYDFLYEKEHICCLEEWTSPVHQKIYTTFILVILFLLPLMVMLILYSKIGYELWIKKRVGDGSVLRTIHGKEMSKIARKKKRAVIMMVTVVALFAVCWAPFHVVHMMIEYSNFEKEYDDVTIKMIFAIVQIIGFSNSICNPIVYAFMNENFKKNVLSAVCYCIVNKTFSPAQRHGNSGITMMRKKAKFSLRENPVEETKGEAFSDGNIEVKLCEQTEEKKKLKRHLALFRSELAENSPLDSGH
Design: method as in PMID 22800498
Settings: cited from earlier work

Which “fold more potent than the reference heptapeptide 26RFa(20–26)” value does the source give for [Cmpi^21]26RFa(21–26) [LV-2043] here?
The value was 5 fold.
